{"source": "patent US11542302B2", "about": "“Modulators of melanocortin receptors for the treatment of depression and anxiety” (ARIZONA BOARD OF REGENTS ON BEHALF OF THE UNIVERSITY OF …, priority 2015, dated 2023)", "target": "hMC5R (Homo sapiens, UniProt P33032)", "sequence (P33032 whole entry)": "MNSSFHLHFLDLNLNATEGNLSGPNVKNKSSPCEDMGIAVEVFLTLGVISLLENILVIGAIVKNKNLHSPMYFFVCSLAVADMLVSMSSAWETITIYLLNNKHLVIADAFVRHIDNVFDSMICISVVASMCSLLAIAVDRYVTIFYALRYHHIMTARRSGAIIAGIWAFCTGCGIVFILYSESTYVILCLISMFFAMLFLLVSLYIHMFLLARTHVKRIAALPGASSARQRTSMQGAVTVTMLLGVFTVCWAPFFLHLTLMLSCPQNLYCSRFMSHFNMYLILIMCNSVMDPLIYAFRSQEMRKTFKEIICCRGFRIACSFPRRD", "assay": "hMC5R intracellular cAMP accumulation", "assay_type": "cell-based", "details": "relative to MT-II", "data": [{"smiles": "N=C(N)NCCC[C@@H]1NC(=O)[C@@H](Cc2ccccc2)NC(=O)[C@H](CC2CCCCC2)NC(=O)c2cc([N+](=O)[O-])ccc2SC[C@@H](C(N)=O)NC(=O)[C@H](Cc2c[nH]c3ccccc23)NC1=O", "note": "[compound 2]", "values": [{"measurement": "% Act at 10 μM (% of cAMP produced at 10 μM ligand concentration, in relation to MT-II)", "result": 0, "unit": "%"}]}]}
